Reference: patent US20160318957A1, “CRYSTAL (1) OF PYRAZINO[2,1-c][1,2,4]TRIAZINE COMPOUND” (PRISM PHARMA CO., LTD., priority 2013, published 2016)

Legend:
Format in all cases: physicochemical
[1] = Heating of crystal in an oven; conditions: oven at 50° C. overnight
Text: First, an amorphous form of compound 1 is explained. Compound 1 can be produced by synthesize according to the method described in patent document 1.

[2] = Evaluation of solid stability (impurity content by HPLC after preservation); conditions: for impurity content (%): HPLC 226 nm
Description: The solid obtained in Example 1 or Comparative Example 1 was preserved for 3 months under the following 3 kinds of preservation conditions. The absorbance at wavelength 226 nm was measured by high performance liquid chromatography (HPLC), and the content of impurity contained in the crystal was measured every other month.
From the peak area of the obtained chromatogram, a value obtained by dividing the total area of respective peaks other than the peak showing compound 1, by the total area of all the obtained peaks, from the peaks contained in the above-mentioned solid, was taken as impurity content (%), and is shown in Table 5.

[3] = Evaluation of thermal stability by X-ray-DSC
Description: Using X-ray diffraction-differential scanning simultaneous calorimetry apparatus (X-ray-DSC), whether the crystal form of crystal A obtained in Example 1 changes upon heating was observed.
When the temperature was around 90° C., the weight of crystal A decreased, and the powder X-ray diffraction pattern changed clearly.

[4] = Hygroscopicity evaluation by dynamic water adsorption measuring apparatus; conditions: 25° C., relative humidity range of 35-75% RH
Description: The hygroscopicity of crystal A obtained in Example 1 was evaluated by a dynamic water adsorption measuring apparatus. A sample mounting part of the apparatus was maintained at 25° C., and the relative humidity (RH) was set stepwisely within the range of 5-95% RH. The humidity was controlled by changing the relative flow of 0% RH dry nitrogen and 100% RH humidified nitrogen. The sample weight was confirmed at for 2 min intervals by a micro balance, and the humidity was sequentially changed at the time point when the weight shift range for 5 min was below 0.01%.

[5] = preserved at 40° C./75% RH, 1 month later
[6] = preserved at 40° C./75% RH, 2 months later
[7] = preserved at 40° C./75% RH, 3 months later
[8] = preserved at 60° C., 1 month later
[9] = preserved at 60° C., 2 months later
[10] = preserved at 60° C., 3 months later
[11] = preserved at −20° C., 1 month later
[12] = preserved at −20° C., 2 months later
[13] = preserved at −20° C., 3 months later
[14] = heated from 40° C. to 100° C. at 1° C./min

Row | Compound | change of solid form on heating [1] | increase in the impurity content as compared to preservation at −20° C. ([2]; 40° C., 75% RH, 3 months later) | increase in the impurity content as compared to preservation at −20° C. ([2]; 60° C., 3 months later) | impurity content (%) [2, 5] [%] | impurity content (%) [2, 6] [%] | impurity content (%) [2, 7] [%] | impurity content (%) [2, 8] [%] | impurity content (%) [2, 9] [%] | impurity content (%) [2, 10] [%] | impurity content (%) [2, 11] [%] | impurity content (%) [2, 12] [%] | impurity content (%) [2, 13] [%] | solid stability compared with amorphous form ([2]; high temperature conditions and high humidity conditions, 3 months) | powder X-ray diffraction pattern at the endothermic peak (desorption of hydrated water) ([3]; 43° C.-48° C., heated at 1° C./min) | temperature at which weight decreased and powder X-ray diffraction pattern changed clearly [3, 14] | thermal stability [3, 14] | hygroscopicity [4] | weight change at the maximum [4]
1 | C[C@H]1C2N(C(=O)CN(C)N2C(=O)NCc2ccccc2)[C@@H](Cc2ccc(OP(=O)(O)O)cc2)C(=O)N1Cc1cccc2cccnc12 (stereo partly drawn) [Example 2, 4-(((6S,9S)-1-(benzylcarbamoyl)-2,9-dimethyl-4,7-dioxo-8-(quinolin-8-ylmethyl)octahydro-1H-pyrazino[2,1-c][1,2,4]triazin-6-yl)methyl)phenyl dihydrogen phosphate] | changes into an amorphous form |  |  |  |  |  |  |  |  |  |  |  |  |  |  |  |  | 
2 | C[C@H]1C2N(C(=O)CN(C)N2C(=O)NCc2ccccc2)[C@@H](Cc2ccc(OP(=O)(O)O)cc2)C(=O)N1Cc1cccc2cccnc12 (stereo partly drawn) [Comparative Example 1, 4-(((6S,9S)-1-(benzylcarbamoyl)-2,9-dimethyl-4,7-dioxo-8-(quinolin-8-ylmethyl)octahydro-1H-pyrazino[2,1-c][1,2,4]triazin-6-yl)methyl)phenyl dihydrogen phosphate] |  | about 4% | not less than 1.1% | 3.35 | 4.62 | 6.51 | 3.10 | 3.41 | 3.68 | 2.46 | 2.60 | 2.57 |  |  |  |  |  | 
3 | C[C@H]1C2N(C(=O)CN(C)N2C(=O)NCc2ccccc2)[C@@H](Cc2ccc(OP(=O)(O)O)cc2)C(=O)N1Cc1cccc2cccnc12 (stereo partly drawn) [Example 1, 4-(((6S,9S)-1-(benzylcarbamoyl)-2,9-dimethyl-4,7-dioxo-8-(quinolin-8-ylmethyl)octahydro-1H-pyrazino[2,1-c][1,2,4]triazin-6-yl)methyl)phenyl dihydrogen phosphate] |  | about 1.6% | not more than 0.5% | 0.65 | 1.02 | 1.80 | 0.53 | 0.59 | 0.72 | 0.24 | 0.17 | 0.24 | more stable than the amorphous form of Comparative Example 1 | did not change | around 90 °C | thermally stable | low hygroscopicity | about 2.5%
